Key:
[1] = tested on: primary human T-cells; assay: IL2 secretion measurements in CD3-stimulated T-cells; format: cell-based; conditions: Homo sapiens, T-cell, 24 h, CD3 condition; for Emax: IL2 after 24 hours, 20 μM reference compound A1 = 100%, read-out: Emax IL2 (% activation); for EC50: IL2 secretion after 24 hours, read-out: Tcell IL2 CD3 EC50
Description: As readouts for T-cell activation, IL2 secretion after 24 hours and proliferation after 5 days was measured. Increases in IL2 secretion and proliferation upon compound treatment were assessed as the % of the maximum of reference compound A1. WO 2016/139181 discloses reference compound A1 as example 70. As a counter screen and to make sure that no unwanted TCR-independent activation was triggered, PBS conditions were run for all compounds.
Expanded primary human T-cells were thawed and cultured in RPMI 1640 (Gibco, #61870-010)+5% human serum (HS, Sigma, #H3667)+1 mM Sodium Pyruvate (Gibco, #11360-039)+50 μM 2-mercaptoethanol (Gibco, #31350-010) and 1× Pen-Strep (Life Technologies, #15140122) medium at density of 2 Mio/ml for 3 hours in 5% CO2, 37° C. and 95% humidity. For coating of plates, […] or PBS++ with CD3 antibody (concentration depending on donor and determined by CD3 titrations) was added 100 μl/well to Poly-D Lysine coated 96-well plates. Plates were sealed and incubated at room temperature for 3 hours on a table-top rocking platform. After incubation, plates were washed once with PBS−− and filled with 40 μl/well culture medium only. Compounds were then added (see next section) to medium only plates. After 3 hours of culturing the T-cells, cells were filtered through a cell strainer (Miltenyi Biotech, #130-041-407), counted again and concentration was adjusted to 1.25 Mio/ml.
Cells were then seeded 80 μl/well to the 40 μl/well including dispensed compounds according to plate layout. By adding cells, compounds were further diluted 1:3, and resulting in 100k cells/120 µl/well. After 24 hours 40 μl of supernatant was collected carefully from the top while not disturbing the cells and transferred into a round bottom 96 well plate. Collected and frozen supernatant was used for detection of IL2 using the IL-2 Human ProQuantum Immunoassay Kit (Invitrogen) or using the Human IL-2 ELISA Kit (Thermo Fisher).
Compound Treatment Compounds were added in a 5 or 6 pt dose response with the Tecan D300e Digital Dispenser, all conditions 3 times more concentrated than the end-concentration, since cells are added afterwards (80p1 cells to 40p1 prepared medium with treatment). The DR was starting at 20 μM or 10 μM final top concentration and a dilution factor of 3.333. The positive control was the reference compound A1 that was added in a dose response as well, additionally to 3 wells of only 20 μM representing the positive stimulator control. All wells were normalized with DMSO to a final concentration of 0.6% (0.2% end-concentration).
The immunoassay is done following the manufacturer's manual (Invitrogen, #A35603).
Additional information: For the immunoassay, MicroAmp™ EnduraPlate™ Optical 384-Well plates are used. Frozen supernatant is thawed and centrifuged for 5 minutes at 1000×g, both steps at 4° C. After centrifugation, required sample amount is taken from the top, and in a separate LightCycler V-bottom plate (working plate) diluted with assay dilution buffer, dilution factor depending on the PBS or CD3 condition but at least 1:3. IL-2 standard and blanks are prepared in the same V-bottom plate, standard with a range of 0.0128-5000 pg/ml (extended version). After preparation, 5 μl of sample dilutions or standard/blanks are transferred to the optical 384-well plate (assay plate) and the 10 μl reaction protocol is being followed. For measurement, the QuantStudio 12K Flex system is used. Raw data is extracted and IL-2 concentrations are calculated with the Thermo Fisher online app (apps.thermofisher.com/apps/proquantum).
ELISA is done following the manufacturer's manual (Thermo Fisher Scientific, #88-7025-88). Additional information: For the ELISA Nunc MaxiSorp 96 well plates are used. Frozen supernatant is thawed and centrifuged for 5 minutes at 1000×g, both steps at 4° C. […]

[2] = target: DGKzeta (Homo sapiens, UniProt Q13574); assay: In vitro DGK inhibition assay (ADP-Glo, liposomes), DGKzeta; format: biochemical; parameters: hDGKzeta(1-928)-N-His; His (N); made in house; host or cells: Sf21 insect cells (baculovirus); conditions: 2 nM DGK ζ, 50 μM ATP, 125 uM DLG in liposomes, 1 hour reaction
DGKzeta, sequence (Q13574 whole entry): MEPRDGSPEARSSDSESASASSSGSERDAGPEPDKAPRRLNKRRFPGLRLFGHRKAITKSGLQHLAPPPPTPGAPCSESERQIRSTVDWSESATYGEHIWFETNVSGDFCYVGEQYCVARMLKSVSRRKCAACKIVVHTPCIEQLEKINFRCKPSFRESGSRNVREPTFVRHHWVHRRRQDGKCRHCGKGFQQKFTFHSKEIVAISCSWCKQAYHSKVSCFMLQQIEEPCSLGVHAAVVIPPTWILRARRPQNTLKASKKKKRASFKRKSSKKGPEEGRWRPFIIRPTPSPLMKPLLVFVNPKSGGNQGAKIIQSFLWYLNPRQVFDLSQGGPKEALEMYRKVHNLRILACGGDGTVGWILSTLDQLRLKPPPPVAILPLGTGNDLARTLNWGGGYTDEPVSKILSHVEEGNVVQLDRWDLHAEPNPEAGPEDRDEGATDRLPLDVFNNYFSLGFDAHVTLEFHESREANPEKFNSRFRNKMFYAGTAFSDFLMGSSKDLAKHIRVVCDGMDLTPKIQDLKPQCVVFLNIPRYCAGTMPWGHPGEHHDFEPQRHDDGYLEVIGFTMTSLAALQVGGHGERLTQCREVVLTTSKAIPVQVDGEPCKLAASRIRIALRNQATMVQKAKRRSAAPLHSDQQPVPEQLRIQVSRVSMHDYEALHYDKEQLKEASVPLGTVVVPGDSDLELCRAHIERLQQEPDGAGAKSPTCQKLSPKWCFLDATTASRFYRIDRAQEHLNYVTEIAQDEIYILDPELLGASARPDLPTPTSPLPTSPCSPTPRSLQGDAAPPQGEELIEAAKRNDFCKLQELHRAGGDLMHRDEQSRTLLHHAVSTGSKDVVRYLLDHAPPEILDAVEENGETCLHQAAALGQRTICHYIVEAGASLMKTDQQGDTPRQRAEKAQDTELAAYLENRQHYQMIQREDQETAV
Description: (§1) DGK α and ζ kinases use ATP to phosphorylate the substrate 1,2-dilauroyl-sn-glycerol (DLG, incorporated in the liposomes). ATP is converted to ADP as a result of this enzymatic reaction. After the kinase reaction, an ATP-depletion reagent is added to terminate the kinase reaction and deplete any remaining ATP, leaving only ADP. Second, a detection reagent is added to simultaneously convert ADP to ATP and allow the newly synthesized ATP to be converted to light using a coupled luciferase/luciferin reaction.
(§2) Purification of both enzymes was performed as previously described by Takahashi et al., PeerJ, 2018 (Takahashi, D.; Sakane, F. Expression and purification of human diacylglycerol kinase alpha from baculovirus-infected insect cells for structural studies. PeerJ 2018, 6, No. e5449).
(§3) A concentrated liposome solution was prepared in assay buffer without DTT and BSA: 2 mM of DLG in 21 mM of total liposome (2 mM DLG/8 mM PS/11 mM PC). The reaction mixtures contain the assay buffer with a final DLG concentration of 125 uM ATP concentrations of 25 μM (for DGKA assay) or 50 μM (for DGKZ assay). The reactions were started by addition of DGK a and (kinases at 4 nM and 2 nM final concentrations, respectively. After 1 hour reaction, the amount of ADP formed was detected with the ADP-Glo kinase assay (Promega) according to the manufacturer instructions. Compounds were added in 11-points dose response, starting at […], 1:3 dilutions, with a final DMSO concentration of 2%. The multidrop combi was used as a liquid handler and luminescence was read with 0.5 s by the envision reader (PE).

[3] = target: DGKalpha (Homo sapiens, UniProt P23743); assay: In vitro DGK inhibition assay (ADP-Glo, liposomes), DGKalpha; format: biochemical; parameters: hDGKalpha(1-735)-N-His; His (N); made in house; host or cells: Sf21 insect cells (baculovirus); conditions: 4 nM DGK α, 25 μM ATP, 125 uM DLG in liposomes, 1 hour reaction
DGKalpha, sequence (P23743 whole entry): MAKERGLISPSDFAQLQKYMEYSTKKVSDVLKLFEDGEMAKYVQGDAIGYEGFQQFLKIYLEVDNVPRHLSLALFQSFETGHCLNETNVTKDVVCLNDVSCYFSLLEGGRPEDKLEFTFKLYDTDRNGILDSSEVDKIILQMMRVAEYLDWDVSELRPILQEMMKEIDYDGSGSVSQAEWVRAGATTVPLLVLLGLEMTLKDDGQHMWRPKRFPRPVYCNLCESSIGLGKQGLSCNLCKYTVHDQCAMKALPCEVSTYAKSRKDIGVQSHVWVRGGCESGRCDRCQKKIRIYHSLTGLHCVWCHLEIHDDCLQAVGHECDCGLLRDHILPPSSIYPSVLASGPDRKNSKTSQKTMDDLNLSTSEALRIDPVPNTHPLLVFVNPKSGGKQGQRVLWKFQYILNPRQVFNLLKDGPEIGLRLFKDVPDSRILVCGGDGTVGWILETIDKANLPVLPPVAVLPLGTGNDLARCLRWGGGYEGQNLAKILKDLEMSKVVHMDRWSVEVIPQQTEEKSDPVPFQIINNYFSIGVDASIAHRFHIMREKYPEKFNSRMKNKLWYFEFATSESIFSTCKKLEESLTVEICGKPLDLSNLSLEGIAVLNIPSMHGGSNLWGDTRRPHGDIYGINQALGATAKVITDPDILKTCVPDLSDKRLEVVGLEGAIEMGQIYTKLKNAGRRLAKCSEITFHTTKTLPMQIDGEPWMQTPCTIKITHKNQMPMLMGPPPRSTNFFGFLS
Description: as §1
as §2, with “Full length DGKA and Z were expressed in Sf21 insect cells by infecting the cells with the baculovirus stock at MOI of 2. Purification” for “Purification”
as §3

SMILES | Emax [1] | EC50 [1] | IC50 [2] | IC50 [3]
CS(=O)(=O)C1(c2nnc(-c3cc4c(cc3F)S(=O)(=O)C[C@H](N)C(=O)N4Cc3ccc(Cl)cc3)o2)CC1 [Example 1, (3R)-3-amino-5-[(4-chlorophenyl)methyl]-8-fluoro-7-[5-(1-methylsulfonylcyclopropyl)-1,3,4-oxadiazol-2-yl]-1,1-dioxo-2,3-dihydro-1λ6,5-benzothiazepin-4-one] | 55% | 1010 nM | 989 nM | 2340 nM
CC(C)(c1nnc(-c2cc3c(cc2F)S(=O)(=O)C[C@H](N)C(=O)N3Cc2ccc(Cl)cc2)o1)S(C)(=O)=O [Example 2, (3R)-3-amino-5-[(4-chlorophenyl)methyl]-8-fluoro-7-[5-(1-methyl-1-methylsulfonyl-ethyl)-1,3,4-oxadiazol-2-yl]-1,1-dioxo-2,3-dihydro-1λ6,5-benzothiazepin-4-one] | 94% | 328 nM | 1380 nM | 1090 nM
CC(C)(c1nnc(-c2ccc3c(c2)N(Cc2ccc(OC(F)(F)C(F)F)cc2)C(=O)[C@@H](N)CS3(=O)=O)o1)S(C)(=O)=O [Example 3, (3R)-3-amino-7-[5-(1-methyl-1-methylsulfonyl-ethyl)-1,3,4-oxadiazol-2-yl]-1,1-dioxo-5-[[4-(1,1,2,2-tetrafluoroethoxy)phenyl]methyl]-2,3-dihydro-126,5-benzothiazepin-4-one] | 102% | 1320 nM | 978 nM | 1730 nM
CC(C)(c1nnc(-c2ccc3c(c2)N(Cc2ccc(Oc4ccccc4)cc2)C(=O)[C@@H](N)CS3(=O)=O)o1)S(C)(=O)=O [Example 5, (3R)-3-amino-7-[5-(1-methyl-1-methylsulfonyl-ethyl)-1,3,4-oxadiazol-2-yl]-1,1-dioxo-5-[(4-phenoxyphenyl)methyl]-2,3-dihydro-1λ6,5-benzothiazepin-4-one] | 118% | 2110 nM | 701 nM | 3120 nM
CC(C)(c1nnc(-c2ccc3c(c2)N(Cc2ccc(OCC(F)(F)F)cc2)C(=O)[C@@H](N)CS3(=O)=O)o1)S(C)(=O)=O [Example 6, (3R)-3-amino-7-[5-(1-methyl-1-methylsulfonyl-ethyl)-1,3,4-oxadiazol-2-yl]-1,1-dioxo-5-[[4-(2,2,2-trifluoroethoxy)phenyl]methyl]-2,3-dihydro-1λ6,5-benzothiazepin-4-one] | 54% | 2660 nM | 2050 nM | 1780 nM
CC(C)(c1nnc(-c2ccc3c(c2)N(Cc2ccc(SC(F)(F)F)cc2)C(=O)[C@@H](N)CS3(=O)=O)o1)S(C)(=O)=O [Example 7] | 94% | 2800 nM | 1710 nM | 2300 nM
CC(C)(c1nnc(-c2ccc3c(c2)N(Cc2ccc(-c4ccc(F)cn4)cc2)C(=O)[C@@H](N)CS3(=O)=O)o1)S(C)(=O)=O [Example 9, (3R)-3-amino-5-[[4-(5-fluoro-2-pyridyl)phenyl]methyl]-7-[5-(1-methyl-1-methylsulfonyl-ethyl)-1,3,4-oxadiazol-2-yl]-1,1-dioxo-2,3-dihydro-1λ6,5-benzothiazepin-4-one] | 65% | 5270 nM | 1320 nM | 944 nM
CC(C)(c1nnc(-c2ccc3c(c2)N(Cc2ccc(-c4ccc(C(F)(F)F)cn4)cc2)C(=O)[C@@H](N)CS3(=O)=O)o1)S(C)(=O)=O [Example 10] | 174% | 1770 nM | 1750 nM | 1020 nM
CC(C)(c1nnc(-c2ccc3c(c2)N(Cc2ccc(OCc4ccccc4)cc2)C(=O)[C@@H](N)CS3(=O)=O)o1)S(C)(=O)=O [Example 11, (3R)-3-amino-5-[(4-benzyloxyphenyl)methyl]-7-[5-(1-methyl-1-methylsulfonyl-ethyl)-1,3,4-oxadiazol-2-yl]-1,1-dioxo-2,3-dihydro-1λ6,5-benzothiazepin-4-one] | 140% | 932 nM | 1060 nM | 753 nM
CC(C)(c1nnc(-c2ccc3c(c2)N(Cc2ccc(OCc4ccc(F)cc4)cc2)C(=O)[C@@H](N)CS3(=O)=O)o1)S(C)(=O)=O [Example 12, (3R)-3-amino-5-[[4-[(4-fluorophenyl)methoxy]phenyl]methyl]-7-[5-(1-methyl-1-methylsulfonyl-ethyl)-1,3,4-oxadiazol-2-yl]-1,1-dioxo-2,3-dihydro-1λ6,5-benzothiazepin-4-one] | 173% | 1020 nM | 802 nM | 669 nM
CC(C)(c1nnc(-c2ccc3c(c2)N(Cc2ccc(OCc4ccccc4F)cc2)C(=O)[C@@H](N)CS3(=O)=O)o1)S(C)(=O)=O [Example 14, (3R)-3-amino-5-[[4-[(2-fluorophenyl)methoxy]phenyl]methyl]-7-[5-(1-methyl-1-methylsulfonyl-ethyl)-1,3,4-oxadiazol-2-yl]-1,1-dioxo-2,3-dihydro-1λ6,5-benzothiazepin-4-one] | 101% | 3770 nM | 1110 nM | 2020 nM
CC(C)(c1nc(-c2cc3c(cc2F)S(=O)(=O)C[C@H](N)C(=O)N3Cc2ccc(C3CCOCC3)cc2)no1)S(C)(=O)=O [Example 53, (3R)-3-amino-8-fluoro-7-[5-(1-methyl-1-methylsulfonyl-ethyl)-1,2,4-oxadiazol-3-yl]-1,1-dioxo-5-[(4-tetrahydropyran-4-ylphenyl)methyl]-2,3-dihydro-1λ6,5-benzothiazepin-4-one] | 96% | 4360 nM | – | 8050 nM
